What was measured:
Format in all cases: biochemical
[1] = target: T1, PfMIF (Plasmodium falciparum, UniProt Q8I5C5); test: Michaelis-Menten kinetics of 4-HPP tautomerization by PfMIF
[2] = target: T2, huMIF (Homo sapiens, UniProt P14174); test: Michaelis-Menten kinetics of 4-HPP tautomerization by huMIF
T2 sequence (P14174 2-115 limits assumed): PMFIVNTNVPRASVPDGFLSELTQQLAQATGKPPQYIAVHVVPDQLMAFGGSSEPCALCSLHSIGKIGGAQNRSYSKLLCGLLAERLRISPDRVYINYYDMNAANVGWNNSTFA

[3] = target: T1, PfMIF; test: biochemical; conditions: for PfMIF tautomerase inhibitory activity (active / inactive): result in words

For `O=C(O)C(=O)Cc1ccc(O)cc1` [Compound 4-HPP, 4-hydroxyphenylpyruvate], the Km ([1]; enolization) was 675 ± 46.9 µM, the kcat ([1]; enolization) was 17.98 ± 0.7 s⁻¹ and the Km ([1]; ketonization) was 187 ± 50.6 µM. For the same compound, the kcat ([1]; ketonization) was 32.90 ± 5.3 s⁻¹, the Km ([2]; enolization) was 1140 ± 216 µM and the kcat ([2]; enolization) was 208.3 ± 19.3 s⁻¹. The Km ([2]; ketonization) was 192 ± 47 µM and the kcat ([2]; ketonization) was 86.62 ± 11.7 s⁻¹.

For `Cc1cc(Oc2cccc(O)c2)nc(-c2ccccc2)n1` [Compound 20], the “times less potent than 25h” value ([3]; ratio of PfMIF Ki values) was “more than 400” and the “PfMIF tautomerase inhibitory activity (active / inactive)” value [3] was “active”.

`COc1cccc(Oc2ccnc(N3CCOCC3)c2)c1` [Compound 23] was tested, and the “PfMIF tautomerase inhibitory activity (active / inactive)” value [3] was “active”.

For `Oc1cccc(Oc2ccc(-c3cccc(O)c3)nc2)c1` [Compound 24d], the “PfMIF tautomerase inhibitory activity (active / inactive)” value [3] was “active”.

With `Oc1ccc(-c2ccc(Oc3cccc(O)c3)cn2)cc1` [Compound 24e] the “PfMIF tautomerase inhibitory activity (active / inactive)” value [3] was “active”.

With `N#Cc1cccc(Oc2ccc(-c3cccc(O)c3)nc2)c1` [Compound 24j] the “times more potent than the 3-hydroxyl analogue 24d” value ([3]; ratio of PfMIF Ki values) was “roughly 20”.

In the case of `COc1cc(C)cc(Oc2cc(C)nc(N3CCOCC3)c2)c1` [Compound 25f], the Ki [3] is reported as 1000 nM.

Compound `COc1cccc(Oc2cc(C)nc(N3CCOCC3)c2)c1` [Compound 25h] has a Ki [3] of about 40 nM.

`COc1ccc(-c2cc(Oc3cc(C)cc(OC)c3)cc(C)n2)cc1` [Compound 26k] gave a Ki [3] of about 40 nM.

Source: PMC3509768 (Journal of medicinal chemistry, 2012)
